Measurements taken from ChEMBL document CHEMBL1146442, “Kawaguchipeptin B, an antibacterial cyclic undecapeptide from the cyanobacterium Microcystis aeruginosa” (1997).
In brackets after ≈: the same amount, converted by molar mass. Residues, ends and D or L forms follow the SMILES beside them.

Tested on: Staphylococcus aureus
Assay: Antimicrobial activity against Staphylococcus aureus
Assay type: functional

Structure (SMILES)	MIC [µg/mL]
CC(C)=CC[C@@]12C[C@H]3C(=O)N[C@@H](CO)C(=O)N[C@@H]([C@@H](C)O)C(=O)N4CCC[C@H]4C(=O)N4[C@@H](C[C@@]5(CC=C(C)C)c6ccccc6N[C@@H]45)C(=O)N[C@H](CC(C)C)C(=O)N[C@@H](CC(N)=O)C(=O)NCC(=O)N[C@@H](CC(=O)O)C(=O)N[C@@H](CC(N)=O)C(=O)N[C@@H](CC(N)=O)C(=O)N3[C@H]1Nc1ccccc12 [KAWAGUCHIPEPTIN A]	1 (≈ 0.703 µM)
CC(C)C[C@@H]1NC(=O)[C@H](Cc2c[nH]c3ccccc23)NC(=O)[C@@H]2CCCN2C(=O)[C@H]([C@@H](C)O)NC(=O)[C@H](CO)NC(=O)[C@H](Cc2c[nH]c3ccccc23)NC(=O)[C@H](CC(N)=O)NC(=O)[C@H](CC(N)=O)NC(=O)[C@H](CC(=O)O)NC(=O)CNC(=O)[C@H](CC(N)=O)NC1=O [KAWAGUCHIPEPTIN B] (HELM PEPTIDE1{D.N.N.W.S.T.P.W.L.N.G}$PEPTIDE1,PEPTIDE1,1:R1-11:R2$$$V2.0)	1 (≈ 0.778 µM)
